Assay results published in ChEMBL document CHEMBL1201862, “PubChem BioAssay data set” (2004).
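Values below derive from 48-hour exposures of cells grown in 96-well plates, with endpoints linearly interpolated between the two concentrations bracketing the appropriate inhibition level. GI50 = concentration required for 50% inhibition of growth.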 Activity calls are given as the source filed them. Rule as the data show it: active = GI50 up to about 1.1 µM and inactive = higher.

Legend:
Assay in all cases: NCI tumour cell line growth inhibition, 48 h
HOP-92 = test system: HOP-92
HCC 2998 = test system: HCC 2998
SF-295 = test system: SF-295
LOX IMVI = test system: LOX IMVI
ACHN = test system: ACHN
TK-10 = test system: TK-10
SW-620 = test system: SW-620
EKVX = test system: EKVX
Malme-3M = test system: Malme-3M
OVCAR-3 = test system: OVCAR-3
OVCAR-5 = test system: OVCAR-5
UO-31 = test system: UO-31
SF-268 = test system: SF-268
OVCAR-8 = test system: OVCAR-8
SR = test system: SR

Measured: GI50

COC(=O)C(C(=O)C(=O)Nc1nc2ccc(OC)cc2s1)c1cnc2ccccc2n1 (centres undefined)
inactive: HOP-92 > 100 µM | HCC 2998 > 100 µM | SF-295 > 100 µM | LOX IMVI > 100 µM | ACHN > 100 µM | TK-10 > 100 µM | SW-620 > 100 µM | EKVX > 100 µM | Malme-3M > 100 µM | OVCAR-3 > 100 µM | OVCAR-5 > 100 µM | UO-31 > 100 µM | SF-268 > 100 µM

CCOc1ccc(NC2=NC(=O)C(CC(=O)Nc3ccc(Cl)cc3Cl)S2)cc1 (centres undefined)
inactive: HCC 2998 > 100 µM | OVCAR-8 > 100 µM | SF-295 > 100 µM | LOX IMVI > 100 µM | ACHN > 100 µM | TK-10 > 100 µM | SW-620 > 100 µM | EKVX > 100 µM | Malme-3M > 100 µM | OVCAR-3 > 100 µM | OVCAR-5 > 100 µM | UO-31 > 100 µM | SF-268 > 100 µM

O=C(Nc1nc2ncn(CCNCCn3cnc4nc(NC(=O)c5ccccc5)[nH]c(=O)c43)c2c(=O)[nH]1)c1ccccc1
inactive: HOP-92 > 100 µM | HCC 2998 > 100 µM | OVCAR-8 > 100 µM | SF-295 > 100 µM | LOX IMVI > 100 µM | ACHN > 100 µM | TK-10 > 100 µM | SW-620 > 100 µM | EKVX > 100 µM | Malme-3M > 100 µM | OVCAR-3 > 100 µM | OVCAR-5 > 100 µM | UO-31 > 100 µM | SF-268 > 100 µM

CCCCOC(=O)NC(=O)c1cn(CCSCCOC(=O)NCCCCCCNC(=O)OCCSCCn2cc(C(=O)NC(=O)OCCCC)c(=O)[nH]c2=O)c(=O)[nH]c1=O
inactive: HOP-92 21.5 µM | HCC 2998 > 100 µM | SF-295 26.6 µM | LOX IMVI > 100 µM | ACHN > 100 µM | TK-10 30.1 µM | SW-620 > 10 µM | EKVX 91.4 µM | Malme-3M 29.7 µM | OVCAR-3 > 100 µM | OVCAR-5 > 100 µM | SR 54.6 µM | UO-31 > 100 µM | SF-268 > 100 µM

FC(F)(F)c1ccccc1C1SCc2nc3ccccc3n21 (centres undefined)
inactive: HOP-92 4.67 µM | HCC 2998 > 100 µM | OVCAR-8 61.4 µM | SF-295 57.1 µM | ACHN 40.6 µM | TK-10 > 100 µM | SW-620 > 100 µM | EKVX 41.1 µM | Malme-3M 25.4 µM | OVCAR-3 40.1 µM | OVCAR-5 28.8 µM | SR 27.9 µM | UO-31 49.7 µM | SF-268 61.9 µM

COc1cc2ccc(CC(=O)O)cc2cc1OC
inactive: HCC 2998 > 100 µM | OVCAR-8 > 100 µM | ACHN > 100 µM | TK-10 > 100 µM | SW-620 > 100 µM | EKVX > 100 µM | Malme-3M > 100 µM | OVCAR-3 > 100 µM | SR > 100 µM | UO-31 > 100 µM | SF-268 > 100 µM

COC(=O)[C@@]12CC(C(C)C)[C@H]3CC(C(=O)C=C1OC)[C@H]32 (some centres undefined)
inactive: HOP-92 > 100 µM | HCC 2998 > 100 µM | OVCAR-8 > 100 µM | SF-295 > 100 µM | ACHN > 100 µM | TK-10 > 100 µM | SW-620 > 100 µM | EKVX > 100 µM | Malme-3M > 100 µM | OVCAR-3 > 100 µM | OVCAR-5 > 100 µM | SF-268 > 100 µM

O=[N+]([O-])c1cccc(C2=NN(c3ccccc3)C3c4cc(Br)ccc4OCC23)c1 (centres undefined)
inactive: HOP-92 12 µM | HCC 2998 > 100 µM | OVCAR-8 > 100 µM | SF-295 > 100 µM | LOX IMVI > 100 µM | ACHN > 100 µM | TK-10 > 100 µM | SW-620 > 100 µM | EKVX 87.7 µM | Malme-3M > 100 µM | OVCAR-3 > 100 µM | OVCAR-5 > 100 µM | UO-31 17.3 µM | SF-268 > 100 µM

Oc1ccccc1/C=N/c1ccccc1/N=C/c1ccccc1O
inactive: HCC 2998 > 100 µM | OVCAR-8 > 100 µM | SF-295 88.9 µM | LOX IMVI > 100 µM | ACHN 30.2 µM | TK-10 > 100 µM | SW-620 > 100 µM | EKVX > 100 µM | Malme-3M > 100 µM | OVCAR-3 36.6 µM | SR 19.5 µM | SF-268 88.1 µM

Cc1ccc(-c2c(N)nc(NC#N)nc2CCC(=O)Nc2ccccc2[N+](=O)[O-])cc1
inactive: HOP-92 > 100 µM | HCC 2998 > 100 µM | SF-295 > 100 µM | LOX IMVI > 100 µM | ACHN > 100 µM | TK-10 > 100 µM | SW-620 > 100 µM | EKVX > 100 µM | Malme-3M > 100 µM | OVCAR-3 > 100 µM | OVCAR-5 > 100 µM | SR > 100 µM | UO-31 > 100 µM | SF-268 > 100 µM

NC(=O)c1cc(C2OC(CO)C(O)C2O)nn1-c1ccc([N+](=O)[O-])cc1 (centres undefined)
inactive: HOP-92 > 100 µM | HCC 2998 > 100 µM | OVCAR-8 > 100 µM | SF-295 > 100 µM | LOX IMVI > 100 µM | ACHN > 100 µM | TK-10 > 100 µM | SW-620 43.3 µM | EKVX > 100 µM | Malme-3M > 100 µM | OVCAR-3 > 100 µM | OVCAR-5 > 100 µM | UO-31 > 100 µM | SF-268 > 100 µM

N=CCCN(CCC=N)c1ccc(/C=C2\CN(NC(=O)c3ccc(Cl)cc3)C(c3ccccc3)=N2)cc1
inactive: HOP-92 > 100 µM | HCC 2998 > 100 µM | OVCAR-8 > 100 µM | SF-295 > 100 µM | LOX IMVI 75 µM | ACHN > 100 µM | TK-10 > 100 µM | SW-620 15.6 µM | EKVX > 100 µM | Malme-3M > 100 µM | OVCAR-3 > 100 µM | OVCAR-5 > 100 µM | UO-31 > 100 µM | SF-268 > 100 µM

O=c1c2ccccc2oc2ccccc12.Oc1cccc2cccnc12
inactive: HCC 2998 1.88 µM | OVCAR-8 2.36 µM | SF-295 2.23 µM | LOX IMVI 1.49 µM | ACHN 3.12 µM | SW-620 1.77 µM | EKVX 3.44 µM | Malme-3M 1.75 µM | OVCAR-3 5.53 µM | SR 2.73 µM | UO-31 2.31 µM | SF-268 2.75 µM

O=C(O)CN(c1ccccc1)S(=O)(=O)c1ccc(Cl)cc1
inactive: HOP-92 > 100 µM | OVCAR-8 > 100 µM | LOX IMVI > 100 µM | ACHN > 100 µM | TK-10 > 100 µM | SW-620 > 100 µM | EKVX > 100 µM | Malme-3M > 100 µM | OVCAR-5 > 100 µM | UO-31 > 100 µM | SF-268 > 100 µM

C[C@@H]1O[C@@H](O[C@H]2[C@H](Oc3cc(O)c4c(=O)cc(-c5ccc(O)cc5)oc4c3)O[C@H](CO)[C@@H](O)[C@@H]2O)[C@H](O)[C@H](O)[C@H]1O [RHOIFOLIN]
inactive: HOP-92 > 100 µM | OVCAR-8 > 100 µM | SF-295 > 100 µM | LOX IMVI > 100 µM | ACHN > 100 µM | TK-10 > 100 µM | EKVX > 100 µM | Malme-3M > 100 µM | OVCAR-3 > 100 µM | OVCAR-5 > 100 µM | UO-31 > 100 µM | SF-268 > 100 µM
